Where two headings read alike, the source gives them in different places.
Tests used:
[1] = system: female Fisher 344 rats bearing rat mammary adenocarcinoma 13762; test: Effect of creatine compounds on glucose levels in rats bearing tumors (i.v., days 4-8 and 14-18); assay type: in vivo; settings: for Glucose Levels: i.v. days 4-8 and 14-18
Protocol: Two creatine compounds, creatine phosphate and cyclocreatine, were injected intravenously into tumor bearing rats, and the level of glucose in the rats was monitored. Beta guanidino propionic acid, also was administered. […] There was no specific reason for using tumor bearing rats, except convenience because the antitumor activity of these compounds also was being studied. The presence of the tumors should not have any effect on the ability of these compounds to regulate glucose levels. The rats carrying the tumors were described by us previously (see, […] et al., Cancer Chemother. Pharmacol, 35: 411-416, 1995). The schedule and dose selected in these experiments was based on prior experience working with this class of compounds as anticancer or antiviral chemotherapeutic agents. The rat mammary adenocarcinoma 13762 was implanted in the female Fisher 344 rats on day zero. The creatine compounds were administered intravenously on days 4-8 and days 14-18. The amounts used were 1 gm/kg of cyclocreatine, 0.93 gm/kg for beta guanidino propionic acid, and 2.32 gm/kg for creatine phosphate. […] Plasma glucose levels were measured at around 11 a.m., by taking a drop of blood from the animals and testing glucose levels using a commercial kit ([…] bG, Boehringer Mannheim). For animals that were treated with drugs, the treatment was around 9 a.m., and bleeding was also at around 11 a.m. To examine more closely what occurred in the above two experiments, the average readings of glucose levels from experiments one and two were taken in the following time intervals post drug treatment: Days 2-3, Days 4-8, Days 8-12, Days 14-18, Day 15 and Days 19-22.

rats = settings: intravenous; cited from earlier work
[2] = system: normal animals and a model for non-insulin dependent diabetes mellitus; settings: cited from earlier work
[3] = in vivo; cited from earlier work

Molecule | Glucose Levels ([1]; Example 1) | Glucose Levels ([1]; Example 2 (repeat)) | effects on glucose level ([1]; average of experiments one and two) [%] | Glucose Levels (rats) | insulin release (rats) | Glucose Levels ([2]; large amounts for several weeks) | Glucose Levels ([2]; model for non-insulin dependent diabetes mellitus) | Glucose Levels ([2]; normal animals) | hypoglycemic effect [3] | undesirable side effects [3]
N=C(N)NCCC(=O)O [beta guanidino propionic acid] | Minimal changes in glucose levels | minimal effect | < 15 | did not affect glucose levels | stimulated insulin release | not to affect glucose levels | had an effect on glucose levels | not to affect glucose levels |  | 
N=C(N)NCCC[C@H](N)C(=O)O [Arginine] |  |  |  | did not affect glucose levels | stimulated insulin release |  |  |  |  | 
Augmentin |  |  |  |  |  |  |  |  | produced hypoglycemia | hypertension and circulatory collapse
